In ChEMBL document CHEMBL3045835, “Comparative study of conventional and microwave-assisted synthesis of some Schiff bases and their potential as antimicrobial agents” (2012):
≈ marks a conversion by molar mass, not a printed value.

Key:
Format in all cases: functional
[1] = test system: Aspergillus niger; assay: Antifungal activity against Aspergillus niger MTCC 2546 at 1500 ug/ml after 18 hr by cup-plate method; settings: MTCC 2546, 18 h, read-out: DIZ
[2] = test system: Escherichia coli; assay: Antibacterial activity against Escherichia coli MTCC 1573 at 200 ug/ml after 18 hr by cup-plate method; settings: MTCC 1573, 18 h, read-out: DIZ
[3] = test system: Bacillus subtilis; assay: Antibacterial activity against Bacillus subtilis MTCC 441 at 1500 ug/ml after 18 hr by cup plate method; settings: MTCC 441, 18 h, read-out: DIZ
[4] = test system: Bacillus pumilus; assay: Antibacterial activity against Bacillus pumilus MTCC 1456 at 200 ug/ml after 18 hr by cup-plate method; settings: MTCC 1456, 18 h, read-out: DIZ
[5] = test system: Aspergillus niger; assay: Antifungal activity against Aspergillus niger MTCC 2546 after 24 hr by broth dilution method; settings: MTCC 2546, 24 h
[6] = test system: Staphylococcus aureus; assay: Antibacterial activity against Staphylococcus aureus MTCC 1430 at 100 ug/ml after 18 hr by cup-plate method; settings: MTCC 1430, 18 h, read-out: DIZ
[7] = test system: Escherichia coli; assay: Antibacterial activity against Escherichia coli MTCC 1573 at 100 ug/ml after 18 hr by cup-plate method; settings: MTCC 1573, 18 h, read-out: DIZ
[8] = test system: Bacillus subtilis; assay: Antibacterial activity against Bacillus subtilis MTCC 441 at 500 ug/ml after 18 hr by cup plate method; settings: MTCC 441, 18 h, read-out: DIZ
[9] = test system: Penicillium chrysogenum; assay: Antifungal activity against Penicillium chrysogenum MTCC 161 at 1000 ug/ml after 18 hr by cup-plate method; settings: MTCC 161, 18 h, read-out: DIZ
[10] = test system: Escherichia coli; assay: Antibacterial activity against Escherichia coli MTCC 1573 at 1000 ug/ml after 18 hr by cup-plate method; settings: MTCC 1573, 18 h, read-out: DIZ
[11] = test system: Bacillus pumilus; assay: Antibacterial activity against Bacillus pumilus MTCC 1456 at 100 ug/ml after 18 hr by cup-plate method; settings: MTCC 1456, 18 h, read-out: DIZ
[12] = test system: Escherichia coli; assay: Antibacterial activity against Escherichia coli MTCC 1573 at 1500 ug/ml after 18 hr by cup-plate method; settings: MTCC 1573, 18 h, read-out: DIZ
[13] = test system: Micrococcus luteus; assay: Antibacterial activity against Micrococcus luteus MTCC 1538 after 24 hr by broth dilution method; settings: MTCC 1538, 24 h
[14] = test system: Bacillus pumilus; assay: Antibacterial activity against Bacillus pumilus MTCC 1456 at 1000 ug/ml after 18 hr by cup-plate method; settings: MTCC 1456, 18 h, read-out: DIZ
[15] = test system: Staphylococcus aureus; assay: Antibacterial activity against Staphylococcus aureus MTCC 1430 after 24 hr by broth dilution method; settings: MTCC 1430, 24 h
[16] = test system: Bacillus pumilus; assay: Antibacterial activity against Bacillus pumilus MTCC 1456 at 1500 ug/ml after 18 hr by cup-plate method; settings: MTCC 1456, 18 h, read-out: DIZ
[17] = test system: Pseudomonas fluorescens; assay: Antibacterial activity against Pseudomonas fluorescens MTCC 2421 after 24 hr by broth dilution method; settings: MTCC 2421, 24 h
[18] = test system: Pseudomonas aeruginosa; assay: Antibacterial activity against Pseudomonas aeruginosa MTCC 424 at 100 ug/ml after 18 hr by cup-plate method; settings: MTCC 424, 18 h, read-out: DIZ
[19] = test system: Aspergillus niger; assay: Antifungal activity against Aspergillus niger MTCC 2546 at 100 ug/ml after 18 hr by cup-plate method; settings: MTCC 2546, 18 h, read-out: DIZ
[20] = test system: Pseudomonas fluorescens; assay: Antibacterial activity against Pseudomonas fluorescens MTCC 2421 at 100 ug/ml after 18 hr by cup-plate method; settings: MTCC 2421, 18 h, read-out: DIZ
[21] = test system: Pseudomonas aeruginosa; assay: Antibacterial activity against Pseudomonas aeruginosa MTCC 424 at 1500 ug/ml after 18 hr by cup-plate method; settings: MTCC 424, 18 h, read-out: DIZ
[22] = test system: Penicillium chrysogenum; assay: Antifungal activity against Penicillium chrysogenum MTCC 161 at 500 ug/ml after 18 hr by cup-plate method; settings: MTCC 161, 18 h, read-out: DIZ
[23] = test system: Aspergillus niger; assay: Antifungal activity against Aspergillus niger MTCC 2546 at 200 ug/ml after 18 hr by cup-plate method; settings: MTCC 2546, 18 h, read-out: DIZ
[24] = test system: Pseudomonas aeruginosa; assay: Antibacterial activity against Pseudomonas aeruginosa MTCC 424 at 1000 ug/ml after 18 hr by cup-plate method; settings: MTCC 424, 18 h, read-out: DIZ
[25] = test system: Pseudomonas aeruginosa; assay: Antibacterial activity against Pseudomonas aeruginosa MTCC 424 after 24 hr by broth dilution method; settings: MTCC 424, 24 h
[26] = test system: Pseudomonas fluorescens; assay: Antibacterial activity against Pseudomonas fluorescens MTCC 2421 at 1500 ug/ml after 18 hr by cup-plate method; settings: MTCC 2421, 18 h, read-out: DIZ
[27] = test system: Pseudomonas fluorescens; assay: Antibacterial activity against Pseudomonas fluorescens MTCC 2421 at 200 ug/ml after 18 hr by cup-plate method; settings: MTCC 2421, 18 h, read-out: DIZ

Q: Which results are given for `O=c1c(/C=N/c2nc[nH]n2)coc2ccccc12`?
A: zone of inhibition at 1500 µg/mL [1]: 22 mm; zone of inhibition at 200 µg/mL [2]: 14 mm; zone of inhibition at 1500 µg/mL [3]: 20 mm; zone of inhibition at 200 µg/mL [4]: 16 mm; MIC [5]: 200 µg/mL (≈ 833 µM); zone of inhibition at 100 µg/mL [6]: 11 mm; zone of inhibition at 100 µg/mL [7]: 13 mm; zone of inhibition at 500 µg/mL [8]: 17 mm; zone of inhibition at 1000 µg/mL [9]: 20 mm; zone of inhibition at 1000 µg/mL [10]: 16 mm; zone of inhibition at 100 µg/mL [11]: 14 mm; zone of inhibition at 1500 µg/mL [12]: 18 mm; MIC [13]: 300 µg/mL (≈ 1250 µM); zone of inhibition at 1000 µg/mL [14]: 19 mm; MIC [15]: 400 µg/mL (≈ 1670 µM); zone of inhibition at 1500 µg/mL [16]: 21 mm; MIC [17]: 200 µg/mL (≈ 833 µM); zone of inhibition at 100 µg/mL [18]: 14 mm; zone of inhibition at 100 µg/mL [19]: 16 mm; zone of inhibition at 100 µg/mL [20]: 13 mm; zone of inhibition at 1500 µg/mL [21]: 20 mm; zone of inhibition at 500 µg/mL [22]: 19 mm; zone of inhibition at 200 µg/mL [23]: 18 mm; zone of inhibition at 1000 µg/mL [24]: 18 mm; MIC [25]: 300 µg/mL (≈ 1250 µM); zone of inhibition at 1500 µg/mL [26]: 20 mm; zone of inhibition at 200 µg/mL [27]: 15 mm
